Common to all, as to assay: Serial dilution test
Holding throughout (format): cell-based

Assay [1] deals with Trichophyton mentagrophytes AT CC 9129. The note with it: ATCC9129, 168 h, 27° C. for 7 days, read-out: MIC, S.D.T., Trichophyton mentagrophytes. Here is the method:
(§1) The inhibitory effect on bacteria and fungi was examined by the serial dilution test and the agar diffusion test (hole-test). As bacteria were used: Staphylococcus aureus SG 511, Streptococcus Aronson, Streptococcus pyogenes At CC 86 68; as fungi: Candida albicans AT CC 10231, Trichophyton mentagrophytes AT CC 9129 and Aspergillus niger.
(§2) 3. Sabouraud broth: for C. alb., Trich. mnt., A. niger
(§3) The age of the primary cultures is 24 hours for bacteria and 14 days for fungi. The standardization of the suspension of microorganisms is effected using a photometer according to Eppendorf (test tube .phi.14 mm, filter 546 nm) and a suspension for comparison consisting of barium sulfate, this suspension being created by adition of 3.0 ml of 1% barium chloride solution to 97 ml of 1% sulfuric acid. After the standardization the bacteria were further diluted to a concentration of 1:1000 by means of sodium chloride solution, the fungi were used in an undiluted state.
(§4) 40 mgm of the substance were put into a 10 ml measuring flask and filled up to the mark with the solvent (corresponds to a dilution of 1:250=4000 μg/ml). The further dilution series was standardized with distilled water or the respective solvent and the following substance concentrations were prepared: 1000; 250; 62.5 μg/ml.
(§5) The tubes were filled with 4.9 ml of the corresponding liquid nutrient medium. Then 0.1 ml of the substance dilution prepared above was added to each tube, so that the mentioned final concentrations were present. Finally each tube was inoculated with 0.1 ml of the standardized suspension of microorganisms. Control tests merely using the solvent are to be carried out simultaneously.
(§6) Bacteria were incubated at 37° C. for 18-20 hours and fungi at 27° C. for 7 days.
(§7) The measurement is carried out macroscopically defining the minimal inhibitory concentration (the lowest still microbiostatically effective concentration).

Assay [2] concerns Candida albicans AT CC 10231. Conditions: for MIC: Candida albicans, ATCC10231, 168 h, 27° C. for 7 days, read-out: MIC, S.D.T., Candida albicans. Here is the method: as §1, §2, §3, §4, §5, §6, §7
For assay [3], the system named is Aspergillus niger. Conditions: for MIC: Aspergillus niger, 168 h, 27° C. for 7 days, read-out: MIC, S.D.T., Aspergillus niger. As to the method: as §1, §2, §3, §4, §5, §6, §7
Setting [4] is: reduced growth at this concentration.

Each structure is given as a SMILES string. Converted amounts (≈) assume the structure as drawn.

From US4225619A, “Substituted fluoracylresorcinols” (Boehringer Ingelheim GmBH, priority 1976, dated 1980) come the findings set out here.

For `CC1CCC(c2c(O)ccc(C(=O)C(F)(F)F)c2O)CC1` (stereo not drawn) [H, 2,4-Dihydroxy-3-(4'-methyl)-cyclohexyl-trifluoro-acetophenone], in assay [1], the MIC (in general, the least concentration at which growth counts as inhibited) amounted to 1.25 µg/mL (≈ 4.14 µM). For the same compound, the “Concentration with reduced growth (value in brackets), S.D.T., Candida albicans” value in assay [2] (setting [4]) was 80 µg/mL. Moreover, the “Concentration with reduced growth (value in brackets), S.D.T., Aspergillus niger” value in assay [3] (setting [4]) was found to be 80 µg/mL.

Turning to `COc1ccc(C(=O)C(F)(F)F)c(OC)c1` [D, 2,4-Dimethoxy-trifluoroacetophenone, reference compound], the MIC in assay [1], in assay [2] and in assay [3] was over 80 µg/mL in each case.

For the compound `CCc1c(O)ccc(C(=O)C(F)(F)F)c1O` [C, 3-Ethyl-2,4-dihydroxy-trifluoroacetophenone, reference compound], the MIC in assay [1] was 1.25 µg/mL (≈ 5.34 µM); in assay [2] it was 20 µg/mL (≈ 85.4 µM); in assay [3], 5 µg/mL (≈ 21.4 µM).

As to `CCc1cc(C(=O)C(F)(F)F)c(O)cc1O` [B, 5-Ethyl-2,4-dihydroxy-trifluoroacetophenone, reference compound], the MIC turned out to be 5 µg/mL (≈ 21.4 µM) in assay [1], 20 µg/mL (≈ 85.4 µM) in assay [2] and 20 µg/mL (≈ 85.4 µM) in assay [3].

Take `CC(C)Cc1c(O)ccc(C(=O)C(F)(F)F)c1O` [F, 2,4-Dihydroxy-3-iso-butyl-trifluoroacetophenone]: the minimum inhibitory concentration (MIC) in assay [1] is 1.25 µg/mL (≈ 4.77 µM); in assay [2] it was 20 µg/mL (≈ 76.3 µM); in assay [3] it was 20 µg/mL (≈ 76.3 µM).

Take `O=C(c1ccc(O)cc1O)C(F)(F)F` [A, 2,4-Dihydroxy-trifluoroacetophenone, reference compound]: the minimal inhibitory concentration (MIC) in assay [1] was 20 µg/mL (≈ 97 µM); in assay [2], 80 µg/mL (≈ 388 µM); in assay [3], 20 µg/mL (≈ 97 µM).
